Assays:
[1] = system: Human iPSC-derived neural progenitor cells; experiment: Acetylation level assay (Western blot); format: cell-based; details: 6 h at 37° C.; for Histone acetylation (H3K9 and H4K12): 10 μM; for amount of cellular acetyl-α-Tubulin: other compounds 10 μM
[2] = Brain penetrance comparison; details: in vivo
[3] = target: T1, HDAC6 (Homo sapiens (Human), UniProt Q9UBN7); experiment: IC50 assay by Nanosyn (Caliper microfluidics mobility shift detection); format: biochemical
[4] = target: T2, HDAC1 (Homo sapiens (Human), UniProt Q13547); experiment: IC50 assay, BPS Biosciences fluorescence assay; format: biochemical; details: BPS Biosciences fluorescence assay
[5] = target: T3, HDAC2 (Homo sapiens (Human), UniProt Q92769); experiment: IC50 assay, BPS Biosciences fluorescence assay; format: biochemical; details: BPS Biosciences fluorescence assay
T3 sequence (Q92769 whole entry): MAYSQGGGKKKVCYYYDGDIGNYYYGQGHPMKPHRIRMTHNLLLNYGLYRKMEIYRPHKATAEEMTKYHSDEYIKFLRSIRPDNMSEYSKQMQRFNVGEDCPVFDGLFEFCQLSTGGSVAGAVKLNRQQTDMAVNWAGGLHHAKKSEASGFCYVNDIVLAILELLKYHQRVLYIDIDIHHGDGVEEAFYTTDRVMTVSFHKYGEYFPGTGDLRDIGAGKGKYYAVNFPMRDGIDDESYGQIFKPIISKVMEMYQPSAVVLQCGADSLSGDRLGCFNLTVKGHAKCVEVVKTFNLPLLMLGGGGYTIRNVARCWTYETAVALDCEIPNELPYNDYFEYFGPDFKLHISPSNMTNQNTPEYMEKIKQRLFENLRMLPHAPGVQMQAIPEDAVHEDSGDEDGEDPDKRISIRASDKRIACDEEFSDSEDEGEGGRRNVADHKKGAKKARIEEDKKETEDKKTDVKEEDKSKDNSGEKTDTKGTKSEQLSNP

[6] = target: T4, HDAC3 (Homo sapiens (Human), UniProt O15379); experiment: IC50 assay, BPS Biosciences fluorescence assay; format: biochemical; details: BPS Biosciences fluorescence assay
[7] = target: T5, HDAC4 (Homo sapiens (Human), UniProt P56524); experiment: IC50 assay, BPS Biosciences fluorescence assay; format: biochemical
T5 sequence (P56524 whole entry): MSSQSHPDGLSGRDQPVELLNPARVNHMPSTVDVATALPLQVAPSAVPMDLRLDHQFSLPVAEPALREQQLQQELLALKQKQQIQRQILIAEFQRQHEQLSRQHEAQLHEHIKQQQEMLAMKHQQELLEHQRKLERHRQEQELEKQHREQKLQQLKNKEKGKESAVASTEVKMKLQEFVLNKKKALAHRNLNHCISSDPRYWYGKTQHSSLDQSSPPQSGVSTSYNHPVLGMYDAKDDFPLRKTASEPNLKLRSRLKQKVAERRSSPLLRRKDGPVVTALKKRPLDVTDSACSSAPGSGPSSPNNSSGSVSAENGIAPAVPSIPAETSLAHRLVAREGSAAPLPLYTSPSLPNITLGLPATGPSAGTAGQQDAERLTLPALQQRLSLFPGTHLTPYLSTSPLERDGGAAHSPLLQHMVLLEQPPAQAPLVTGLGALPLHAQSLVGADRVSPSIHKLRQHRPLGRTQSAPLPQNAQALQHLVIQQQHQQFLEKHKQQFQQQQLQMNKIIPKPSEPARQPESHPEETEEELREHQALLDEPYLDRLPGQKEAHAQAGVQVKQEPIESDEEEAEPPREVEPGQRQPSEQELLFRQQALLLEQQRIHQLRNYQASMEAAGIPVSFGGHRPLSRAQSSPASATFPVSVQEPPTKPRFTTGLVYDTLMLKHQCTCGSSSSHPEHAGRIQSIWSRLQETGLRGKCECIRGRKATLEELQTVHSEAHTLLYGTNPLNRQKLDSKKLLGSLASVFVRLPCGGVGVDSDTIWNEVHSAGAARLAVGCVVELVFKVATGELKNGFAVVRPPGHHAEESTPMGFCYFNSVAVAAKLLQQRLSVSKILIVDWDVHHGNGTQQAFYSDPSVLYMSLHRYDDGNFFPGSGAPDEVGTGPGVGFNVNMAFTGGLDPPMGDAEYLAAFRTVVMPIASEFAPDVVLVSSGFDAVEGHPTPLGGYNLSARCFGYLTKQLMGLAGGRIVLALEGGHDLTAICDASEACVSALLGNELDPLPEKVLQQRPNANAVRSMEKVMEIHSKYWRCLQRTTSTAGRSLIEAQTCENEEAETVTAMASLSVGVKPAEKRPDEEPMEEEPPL

[8] = target: T6, HDAC5 (Homo sapiens (Human), UniProt Q9UQL6); experiment: IC50 assay, BPS Biosciences fluorescence assay; format: biochemical
[9] = target: T1, HDAC6; experiment: IC50 assay, BPS Biosciences fluorescence assay; format: biochemical
[10] = target: T7, HDAC7 (Homo sapiens (Human), UniProt Q8WUI4); experiment: IC50 assay, BPS Biosciences fluorescence assay; format: biochemical
T7 sequence (Q8WUI4 whole entry): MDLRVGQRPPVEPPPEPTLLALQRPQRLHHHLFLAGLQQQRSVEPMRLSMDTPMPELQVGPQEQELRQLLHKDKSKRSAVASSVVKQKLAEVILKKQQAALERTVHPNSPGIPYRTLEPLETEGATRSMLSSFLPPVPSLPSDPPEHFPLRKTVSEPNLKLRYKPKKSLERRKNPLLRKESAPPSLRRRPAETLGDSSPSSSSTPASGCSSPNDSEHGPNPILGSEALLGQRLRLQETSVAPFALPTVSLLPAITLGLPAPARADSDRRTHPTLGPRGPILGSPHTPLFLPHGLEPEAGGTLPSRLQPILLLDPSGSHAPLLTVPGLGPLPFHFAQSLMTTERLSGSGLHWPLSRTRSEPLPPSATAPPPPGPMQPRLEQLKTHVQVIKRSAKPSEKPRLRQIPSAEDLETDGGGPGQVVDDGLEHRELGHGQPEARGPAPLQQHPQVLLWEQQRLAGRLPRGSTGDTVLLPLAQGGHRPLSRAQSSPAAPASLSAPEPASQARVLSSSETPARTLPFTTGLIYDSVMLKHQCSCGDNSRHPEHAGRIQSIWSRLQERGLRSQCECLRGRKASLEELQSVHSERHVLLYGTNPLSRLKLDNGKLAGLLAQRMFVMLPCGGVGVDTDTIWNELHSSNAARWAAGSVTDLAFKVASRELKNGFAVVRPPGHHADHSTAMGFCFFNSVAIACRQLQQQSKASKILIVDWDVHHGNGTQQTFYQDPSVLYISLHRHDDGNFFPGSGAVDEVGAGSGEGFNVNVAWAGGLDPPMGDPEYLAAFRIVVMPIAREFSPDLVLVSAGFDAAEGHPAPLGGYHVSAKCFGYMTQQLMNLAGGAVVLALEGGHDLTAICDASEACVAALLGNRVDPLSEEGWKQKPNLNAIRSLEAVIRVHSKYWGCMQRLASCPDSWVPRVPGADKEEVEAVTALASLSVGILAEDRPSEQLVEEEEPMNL

[11] = target: T8, HDAC8 (Homo sapiens (Human), UniProt Q9BY41); experiment: IC50 assay, BPS Biosciences fluorescence assay; format: biochemical
[12] = target: T9, HDAC9 (Homo sapiens (Human), UniProt Q9UKV0); experiment: IC50 assay, BPS Biosciences fluorescence assay; format: biochemical
T9 sequence (Q9UKV0 whole entry): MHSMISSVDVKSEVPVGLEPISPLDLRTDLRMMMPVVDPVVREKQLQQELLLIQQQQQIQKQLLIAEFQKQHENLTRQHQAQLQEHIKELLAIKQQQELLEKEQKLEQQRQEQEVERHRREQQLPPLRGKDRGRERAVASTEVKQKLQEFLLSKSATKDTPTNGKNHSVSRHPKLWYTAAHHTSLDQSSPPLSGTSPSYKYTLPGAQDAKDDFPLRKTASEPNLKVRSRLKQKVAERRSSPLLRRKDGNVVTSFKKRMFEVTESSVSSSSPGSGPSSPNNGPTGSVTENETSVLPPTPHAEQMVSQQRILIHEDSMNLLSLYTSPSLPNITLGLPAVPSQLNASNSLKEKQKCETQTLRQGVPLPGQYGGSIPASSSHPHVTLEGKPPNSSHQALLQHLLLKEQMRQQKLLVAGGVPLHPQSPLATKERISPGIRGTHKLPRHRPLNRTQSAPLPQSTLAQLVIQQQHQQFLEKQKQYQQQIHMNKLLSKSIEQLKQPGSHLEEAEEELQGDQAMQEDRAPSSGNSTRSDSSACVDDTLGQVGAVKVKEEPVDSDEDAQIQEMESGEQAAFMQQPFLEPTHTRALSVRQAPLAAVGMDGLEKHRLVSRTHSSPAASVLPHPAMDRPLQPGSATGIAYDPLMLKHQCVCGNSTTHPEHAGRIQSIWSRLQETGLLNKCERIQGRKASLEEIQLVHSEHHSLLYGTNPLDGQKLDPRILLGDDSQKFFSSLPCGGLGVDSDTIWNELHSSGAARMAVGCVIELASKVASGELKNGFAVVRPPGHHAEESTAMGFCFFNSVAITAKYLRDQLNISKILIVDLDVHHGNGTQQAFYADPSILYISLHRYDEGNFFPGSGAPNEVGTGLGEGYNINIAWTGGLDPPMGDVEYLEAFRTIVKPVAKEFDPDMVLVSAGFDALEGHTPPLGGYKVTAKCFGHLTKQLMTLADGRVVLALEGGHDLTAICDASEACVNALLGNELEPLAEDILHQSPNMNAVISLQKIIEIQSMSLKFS

[13] = target: T10, HDAC10 (Homo sapiens (Human), UniProt Q969S8); experiment: IC50 assay, BPS Biosciences fluorescence assay; format: biochemical; details: BPS Biosciences fluorescence assay
[14] = target: T11, HDAC11 (Homo sapiens (Human), UniProt Q96DB2); experiment: IC50 assay, BPS Biosciences fluorescence assay; format: biochemical
T11 sequence (Q96DB2 whole entry): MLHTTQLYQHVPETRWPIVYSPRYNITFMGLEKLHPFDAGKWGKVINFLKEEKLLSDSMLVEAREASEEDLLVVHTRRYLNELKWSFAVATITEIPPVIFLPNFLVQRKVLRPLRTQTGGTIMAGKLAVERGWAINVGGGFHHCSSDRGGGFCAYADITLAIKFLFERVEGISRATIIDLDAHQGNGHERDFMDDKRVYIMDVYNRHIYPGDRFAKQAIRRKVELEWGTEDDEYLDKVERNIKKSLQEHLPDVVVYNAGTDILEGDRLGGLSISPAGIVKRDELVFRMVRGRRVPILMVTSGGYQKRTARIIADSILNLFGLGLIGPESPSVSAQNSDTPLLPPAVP

[15] = target: T5, HDAC4; experiment: IC50 assay by Nanosyn (Caliper microfluidics mobility shift detection); format: biochemical; details: IC50 measured by Nanosyn
[16] = target: T6, HDAC5; experiment: as above; format: biochemical; details: IC50 measured by Nanosyn
[17] = target: T7, HDAC7; experiment: as above; format: biochemical; details: IC50 measured by Nanosyn
[18] = target: T8, HDAC8; experiment: as above; format: biochemical; details: IC50 measured by Nanosyn
[19] = target: T9, HDAC9; experiment: as above; format: biochemical; details: IC50 measured by Nanosyn
[20] = target: T2, HDAC1; experiment: as above; format: biochemical; details: IC50 measured by Nanosyn
Protocol: (§1) IC50 measurements were conducted by BPS Biosciences (Table 1) or by Nanosyn (Table 1A) with an established fluorescence assay. […] A=Martinostat (Caliper (microfluidics mobility shift detection) by Nanosyn (same run, duplicates));

[21] = target: T10, HDAC10; experiment: as above; format: biochemical; details: IC50 measured by Nanosyn
Protocol: as §1

[22] = target: T3, HDAC2; experiment: as above; format: biochemical; details: IC50 measured by Nanosyn
Protocol: as §1

[23] = target: T4, HDAC3; experiment: as above; format: biochemical; details: IC50 measured by Nanosyn
Protocol: as §1

[24] = target: T11, HDAC11; experiment: as above; format: biochemical; details: IC50 measured by Nanosyn
[25] = target: HDAC6 (Rattus norvegicus (Rat), UniProt A0A8I6GM68); experiment: Autoradiography competition with radiolabeled Example 2 on rat brain slices; format: binding, Sprague-Dawley rat; details: Tubastatin A at 100 μM
Protocol: Sagittal slices of Sprague-Dawley rat brains were sectioned (10 μm) with a cryostat (Thermo Scientific HM550) and mounted onto ColorFrost Plus microscope slides (Fisher Scientific 12-550-18) and stored at −20° C. […] After 15 min, 50 μCi of the radiolabeled compound of Example 2 was added to each bath. After 15 minutes, all slides were washed by dipping 10× into buffer and subsequently submerged in 50 mL baths of buffer at 4° C. for 5 minutes. The slides were dried at 35° C. in a vacuum chamber. A phosphorus screen (Perkin Elmer 7001723) was exposed with the slides for 45 minutes and subsequently imaged with a Cyclone Plus Storage Phosphor (Perkin Elmer) detector. ImageJ was used to apply a Gaussian blur (3.0 radius) smoothing and a lookup table (Royal) with equivalent thresholds for brightness was applied. Raw intensity values from gray and white matter were quantified with the ImageJ measurement tool.

[26] = PET/CT imaging in rats; format: in vivo, Sprague-Dawley rats
Protocol: 8 male Sprague-Dawley rats (Charles River Laboratories) were used for PET imaging. […] For intravenous administration, a catheter with an extension line was placed in a lateral tail vein. Each animal received a bolus injection of either vehicle (1:1:8 DMSO/Tween80/saline) or blocking agent in solution (1 mg/kg, 1 mg/mL in 1:1:8 DMSO/Tween80/saline) immediately prior to injection of the radiotracer.
After injection of a radiotracer bolus ([…] Example 2) a 90 min dynamic PET scan was acquired in pairs for all animals. PET scans were performed on a GammaMedica Triumph PET/CT/SPECT scanner, corrected for attenuation with a μ-map derived from the corresponding CT image, which was acquired immediately following the PET scan. The dynamic PET data was binned into 38 timeframes (8×15 s, 8×1 min, 10×2 min, 12×5) and reconstructed individually via an iterative MLEM (maximum likelihood expectation maximization) algorithm in 16 iterations.
PET images were to the CT image acquired from the same animal using AMIDE Data sets were cropped and all further image analysis was conducted using PMOD 3.3 (PMOD Technologies, Zurich, Switzerland). For maximum consistency, the data were coregistered to the Schiffer Px Rat rat brain template and data was derived from a whole brain VOI (volumes of interest) for time activity curves.

[27] = BPS Biosciences fluorescence assay

T1 sequence (Q9UBN7 whole entry): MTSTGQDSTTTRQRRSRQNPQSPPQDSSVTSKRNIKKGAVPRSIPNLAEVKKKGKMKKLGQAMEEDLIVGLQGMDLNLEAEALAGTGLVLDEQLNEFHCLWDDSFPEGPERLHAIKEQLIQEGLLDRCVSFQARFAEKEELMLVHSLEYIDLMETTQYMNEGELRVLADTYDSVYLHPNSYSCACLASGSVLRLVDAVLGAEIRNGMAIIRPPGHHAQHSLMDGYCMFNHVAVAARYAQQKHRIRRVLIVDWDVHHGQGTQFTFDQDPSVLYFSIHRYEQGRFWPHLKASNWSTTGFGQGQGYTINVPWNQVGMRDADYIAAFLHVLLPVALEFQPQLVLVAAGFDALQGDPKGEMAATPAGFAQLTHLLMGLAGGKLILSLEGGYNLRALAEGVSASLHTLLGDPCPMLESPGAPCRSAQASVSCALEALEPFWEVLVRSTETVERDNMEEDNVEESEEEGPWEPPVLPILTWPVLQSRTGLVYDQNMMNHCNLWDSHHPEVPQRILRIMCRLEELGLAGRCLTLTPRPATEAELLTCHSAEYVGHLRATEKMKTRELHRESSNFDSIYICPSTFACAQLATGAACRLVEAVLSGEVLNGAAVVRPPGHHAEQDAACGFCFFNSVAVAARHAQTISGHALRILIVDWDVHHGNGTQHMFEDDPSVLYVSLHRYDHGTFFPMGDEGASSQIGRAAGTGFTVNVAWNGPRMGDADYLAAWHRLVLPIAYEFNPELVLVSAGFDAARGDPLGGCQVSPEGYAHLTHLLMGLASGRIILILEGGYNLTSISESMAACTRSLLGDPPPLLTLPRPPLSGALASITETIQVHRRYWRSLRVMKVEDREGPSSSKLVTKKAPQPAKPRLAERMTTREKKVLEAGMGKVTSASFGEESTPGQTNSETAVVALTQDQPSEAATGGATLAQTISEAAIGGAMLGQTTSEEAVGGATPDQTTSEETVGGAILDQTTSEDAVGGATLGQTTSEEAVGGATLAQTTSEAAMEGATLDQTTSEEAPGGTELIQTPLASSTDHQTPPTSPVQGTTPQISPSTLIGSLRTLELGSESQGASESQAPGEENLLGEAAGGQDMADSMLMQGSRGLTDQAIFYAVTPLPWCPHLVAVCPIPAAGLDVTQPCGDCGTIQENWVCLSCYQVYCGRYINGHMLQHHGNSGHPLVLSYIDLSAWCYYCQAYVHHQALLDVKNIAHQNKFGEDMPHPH

## CC(=O)Nc1ccc(C(=O)Nc2ccccc2N)cc1 [CI-994, tacedinaline]
[1]
  Histone acetylation (H3K9 and H4K12): significantly increased
[1]; ACY1215 5 μM
  amount of cellular acetyl-α-Tubulin: did not increase

## O=C(CCCCCCNC(=O)c1cnc(N(c2ccccc2)c2ccccc2)nc1)NO [ACY-1215, ricolinostat]
[2]
  Brain-penetrant?: −
[1]; ACY1215 5 μM
  acetylation of H4K12: significantly increased
  amount of cellular acetyl-α-Tubulin: increased

## CCC(NCc1ccc(C(=O)NO)cc1)C12CC3CC(CC(C3)C1)C2 (centres unmarked) [Example 21, 4-(((1-((3r,5r,7r)-adamantan-1-yl)propyl)amino)methyl)-N-hydroxybenzamide]
[3]; Nanosyn (Table 1A)
  IC50: 213 nM

## CN(Cc1ccc(/C=C/C(=O)NO)cc1)CC12CC3CC(CC(C3)C1)C2 [Martinostat, martinostat]
[4]
  IC50: 6.2 nM
[5]
  IC50: 22 nM
[6]
  IC50: 7.1 nM
[7]; [27]
  IC50: > 1000 nM
[7]; at 1 μM, BPS Biosciences, read-out: HDAC4 Percentage Inhibition
  inhibition at 1 µM: 39%
[8]
  IC50: 980 nM
[9]
  IC50: 48 nM
[10]
  IC50: > 1000 nM
[11]
  IC50: > 1000 nM
[12]; [27]
  IC50: > 1000 nM
[12]; at 1 μM, BPS Biosciences, read-out: HDAC9 Percentage Inhibition
  inhibition at 1 µM: 12%
[13]
  IC50: 8.9 nM
[14]; [27]
  IC50: > 1000 nM
[14]; at 1 μM, BPS Biosciences, read-out: HDAC11 Percentage Inhibition
  inhibition at 1 µM: 17%
[15]
  IC50: 240 nM
[16]
  IC50: 75 nM
[3]; IC50 measured by Nanosyn
  IC50: 1.8 nM
[17]
  IC50: > 1000 nM
[18]
  IC50: 750 nM
[19]
  IC50: > 1000 nM
[20]
  IC50: 1.2 nM
[21]
  IC50: 2 nM
[22]
  IC50: 4 nM
[23]
  IC50: 0.3 nM
[24]
  IC50: > 1000 nM

## O=C(NO)c1ccc(CNCC2CCCCC2)cc1 [Example 25, 4-(((cyclohexylmethyl)amino)methyl)-N-hydroxybenzamide]
[3]; Nanosyn (Table 1A)
  IC50: 84 nM

## O=C(NO)c1ccc(CNC23CC4CC(CC(C4)C2)C3)cc1 [Example 18, 4-((((3s,5s,7s)-adamantan-1-yl)amino)methyl)-N-hydroxybenzamide]
[3]; Nanosyn (Table 1A)
  IC50: 1380 nM

## CN1CCc2c(c3ccccc3n2Cc2ccc(C(=O)NO)cc2)C1 [Tubastatin A]
[2]
  Brain-penetrant?: +/−
[1]
  Histone acetylation (H3K9 and H4K12): remained unaltered
[1]; ACY1215 5 μM
  amount of cellular acetyl-α-Tubulin: increased
[25]
  amount of bound radioactivity (radiolabeled Example 2) on rat brain slices: reduce the amount of bound radioactivity to the same background as 10 μM Example 1

## CN(Cc1ccc(C(=O)NO)cc1)CC12CC3CC(CC(C3)C1)C2 [Example 12, 4-(((((3r,5r,7r)-adamantan-1-yl)methyl)(methyl)amino)methyl)-N-hydroxybenzamide]
[3]; Nanosyn (Table 1A)
  IC50: 81 nM

## O=C(NO)c1ccc(CNCC23CC4CC(CC(C4)C2)C3)c(Cl)c1 [Example 14, 4-((((adamantan-1-yl)methyl)amino)methyl)-3-chloro-N-hydroxybenzamide]
[3]; Nanosyn (Table 1A)
  IC50: 74.8 nM

## O=C(NO)c1ccc(CNCC23CC4CC(CC(C4)C2)C3)cc1F [Example 8, 4-((((Adamantan-1-yl)methyl)amino)methyl)-2-fluoro-N-hydroxybenzamide]
[3]; Nanosyn (Table 1A)
  IC50: 89 nM

## Cc1cc(C(=O)NO)ccc1CNCC12CC3CC(CC(C3)C1)C2 [Example 11, 4-((((adamantan-1-yl)methyl)amino)methyl)-3-methyl-N-hydroxybenzamide]
[3]; Nanosyn (Table 1A)
  IC50: 574 nM

## O=C(NO)c1cc(F)c(CNCC23CC4CC(CC(C4)C2)C3)c(F)c1 [Example 9, 4-((((Adamantan-1-yl)methyl)amino)methyl)-3,5-difluoro-N-hydroxybenzamide]
[3]; Nanosyn (Table 1A)
  IC50: 13.6 nM

## O=C(NO)c1ccc(CNCC23CC4CC(CC(C4)C2)C3)c(Br)c1 [Example 15, 4-((((adamantan-1-yl)methyl)amino)methyl)-3-bromo-N-hydroxybenzamide]
[3]; Nanosyn (Table 1A)
  IC50: 59.9 nM

## O=C(NO)c1ccc(CNCC23CC4CC(CC(C4)C2)C3)cc1 [Example 17, 4-(((((3r,5r,7r)-adamantan-1-yl)methyl)amino)methyl)-N-hydroxybenzamide]
[3]; Nanosyn (Table 1A)
  IC50: 35 nM

## CC1(C)C2CCC(CNCc3ccc(C(=O)NO)cc3)C1C2 (centres unmarked) [Example 23, 4-((((6,6-dimethylbicyclo[3.1.1]heptan-2-yl)methyl)amino)methyl)-N-hydroxybenzamide]
[3]; Nanosyn (Table 1A)
  IC50: 149 nM

## CCC(N(C)Cc1ccc(C(=O)NO)cc1)C12CC3CC(CC(C3)C1)C2 (centres unmarked) [Example 22, 4-(((1-((3r,5r,7r)-adamantan-1-yl)propyl)(methyl)amino)methyl)-N-hydroxybenzamide]
[3]; Nanosyn (Table 1A)
  IC50: 121 nM

## O=C(NO)c1ccc(CNCC23CC4CC(CC(C4)C2)C3)c(C(F)(F)F)c1 [Example 10, 4-((((adamantan-1-yl)methyl)amino)methyl)-3-trifluoromethyl-N-hydroxybenzamide]
[3]; Nanosyn (Table 1A)
  IC50: 1020 nM

## CC(CC12CC3CC(CC(C3)C1)C2)NCc1ccc(C(=O)NO)cc1 (centres unmarked) [Example 19, 4-(((1-(adamantan-1-yl)propan-2-yl)amino)methyl)-N-hydroxybenzamide]
[3]; Nanosyn (Table 1A)
  IC50: 323 nM

## O=C(NO)c1ccc(CNCC23CC4CC(CC(C4)C2)C3)nc1 [Example 13, 6-((((adamantan-1-yl)methyl)amino)methyl)-N-hydroxynicotinamide]
[3]; Nanosyn (Table 1A)
  IC50: 26.7 nM

## O=C(NO)c1ccc(CNCC23CC4CC(CC(C4)C2)C3)c(F)c1 [Example 16, 4-(((((3r,5r,7r)-adamantan-1-yl)methyl)amino)methyl)-3-fluoro-N-hydroxybenzamide]
[3]; Nanosyn (Table 1A)
  IC50: 12 nM

## CCCCCN(Cc1ccc(C(=O)NO)cc1)CC1CCC2CC1C2(C)C (centres unmarked) [Example 24, 4-((((6,6-dimethylbicyclo[3.1.1]heptan-2-yl)methyl)(pentyl)amino)methyl)-N-hydroxybenzamide]
[3]; Nanosyn (Table 1A)
  IC50: 1190 nM

## CN(Cc1ccc(C(=O)NO)cc1[18F])CC12CC3CC(CC(C3)C1)C2 [Example 2, 4-((((Adamantan-1-yl)methyl)(methyl)amino)methyl)-3-[^18F]fluoro-N-hydroxybenzamide]
[26]; radiotracer, PET
  brain uptake and retention: excellent
[26]; rat, in vivo
  off-rate in preclinical PET: slow
